Molecules are shown by their SMILES.

The target in this experiment is T1, Human Recombinant Matriptase 2 (Homo sapiens, UniProt Q8IU80).
T1 construct: made in house
T1 sequence (Q8IU80 1-811): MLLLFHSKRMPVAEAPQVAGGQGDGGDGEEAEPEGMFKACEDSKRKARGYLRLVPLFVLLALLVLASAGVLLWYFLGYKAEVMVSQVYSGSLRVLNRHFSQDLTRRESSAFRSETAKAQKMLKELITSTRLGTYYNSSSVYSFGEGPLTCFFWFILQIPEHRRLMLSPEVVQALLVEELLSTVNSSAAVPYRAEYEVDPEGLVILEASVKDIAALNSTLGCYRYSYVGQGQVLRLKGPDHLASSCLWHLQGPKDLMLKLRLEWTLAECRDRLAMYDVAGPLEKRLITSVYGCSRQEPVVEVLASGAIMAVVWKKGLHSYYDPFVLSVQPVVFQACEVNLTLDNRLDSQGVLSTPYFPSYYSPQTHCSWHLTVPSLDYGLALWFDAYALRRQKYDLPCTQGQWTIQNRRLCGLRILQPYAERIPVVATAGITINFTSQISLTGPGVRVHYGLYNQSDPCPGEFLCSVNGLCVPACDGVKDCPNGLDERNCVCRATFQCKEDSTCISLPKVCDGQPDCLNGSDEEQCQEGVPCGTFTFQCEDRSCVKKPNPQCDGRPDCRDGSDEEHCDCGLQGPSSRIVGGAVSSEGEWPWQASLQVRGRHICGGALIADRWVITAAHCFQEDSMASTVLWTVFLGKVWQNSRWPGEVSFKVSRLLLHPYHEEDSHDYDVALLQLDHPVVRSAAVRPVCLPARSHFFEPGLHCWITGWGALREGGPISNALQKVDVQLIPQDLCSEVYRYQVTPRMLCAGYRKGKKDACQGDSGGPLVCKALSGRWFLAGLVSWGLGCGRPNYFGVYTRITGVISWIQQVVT
Description: Matriptase 2 inhibition, fluorescence based assay (Method I). The class given is biochemical. The conditions noted are these: Table A; Ki of Matriptase-2; read-out: Mat-2 Ki. In outline: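 Fluorogenic readout (Ex 360/Em 480 nm) taken 60 min after adding 62 μM Boc-Gln-Ala-Arg-AMC, following 30-min enzyme–compound preincubation at 25 °C. Conditions: 3.5 nM in-house enzyme, pH 7.5 Tris/NaCl/gelatin buffer, 1% DMSO; percent inhibition versus concentration fitted by variable-slope sigmoidal regression.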
For orientation: Ki means the equilibrium dissociation constant of an inhibitor or competing ligand from its target. Take `CC(C)N(C)CCOC(=O)c1cc2ccc(CN)nc2n1Cc1cc(NS(=O)(=O)Cc2ccccc2)cc2ccccc12` [Compound 52, 2-[methyl(propan-2-yl)-amino]ethyl 6-(amino-methyl)-1-{[3-(phenyl-methanesulfonamido)-naphthalen-1-yl]methyl}-1H-pyrrolo[2,3-b]pyr-idine-2-carboxylate]: the Ki was not above 100 nM.
For `CNCCOC(=O)c1cc2ccc(CN)nc2n1Cc1cc(NS(=O)(=O)Cc2ccccc2)cc2ccccc12` [Compound 53, 2-(methylamino)ethyl 6-(aminomethyl)-1-{[3-(phenylmethanesulfon-amido)naphthalen-1-yl]-methyl}-1H-pyrrolo[2,3-b]pyridine-2-carboxylate] the value was not above 100 nM; for `NCc1ccc2cc(C(=O)OCC3(CN)CC3)n(Cc3cc(NS(=O)(=O)Cc4ccccc4)cc4ccccc34)c2n1` [Compound 55, [1-(aminomethyl)cyclo-propyl]methyl 6-(amino-methyl)-1-{[3-(phenyl-methanesulfonamido)-naphthalen-1-yl]methyl}-1H-pyrrolo[2,3-b]pyr-idine-2-carboxylate], not above 100 nM.
The figure for `NCc1ccc2cc(C(=O)OCCOCCN3CCCCC3)n(Cc3cc(NS(=O)(=O)Cc4ccccc4)cc4ccccc34)c2n1` [Compound 56, 2-[2-(piperidin-1-yl)-ethoxy]ethyl 6-(amino-methyl)-1-{[3-(phenyl-methanesulfonamido)-naphthalen-1-yl]methyl}-1H-pyrrolo[2,3-b]pyr-idine-2-carboxylate] is not above 100 nM; for `NCc1ccc2cc(C(N)=O)n(Cc3cc(NS(=O)(=O)Cc4ccccc4)cc4ccccc34)c2n1` [Compound 57, 6-(aminomethyl)-1-{[3-(phenylmethanesulfon-amido)naphthalen-1-yl]-methyl}-1H-pyrrolo[2,3-b]pyridine-2-carboxamide] it is not above 100 nM; for `CN(C)CCOCCOC(=O)c1cc2ccc(CN)nc2n1Cc1cc(NS(=O)(=O)Cc2ccccc2)cc2ccccc12` [Compound 58, 2-[2-(dimethylamino)-ethoxy]ethyl 6-(amino-methyl)-1-{[3-(phenyl-methanesulfonamido)-naphthalen-1-yl]methyl}-1H-pyrrolo[2,3-b]pyr-idine-2-carboxylate] it is not above 100 nM.
For `NCc1ccc2cc(C(=O)OCC3CCN(C=O)CC3)n(Cc3cc(NS(=O)(=O)Cc4ccccc4)cc4ccccc34)c2n1` [Compound 59, (1-formylpiperidin-4-yl)-methyl 6-(aminomethyl)-1-{[3-(phenylmethane-sulfonamido)naphthalen-1-yl]methyl}-1H-pyr-rolo[2,3-b]pyridine-2-carboxylate] the value was not above 100 nM; for `NCc1ccc2cc(C(=O)NCCN3CCOCC3)n(Cc3cc(NS(=O)(=O)Cc4ccccc4)cc4ccccc34)c2n1` [Compound 60, 6-(aminomethyl)-N-[2-(morpholin-4-yl)ethyl]-1-{[3-(phenylmethane-sulfonamido)naphthalen-1-yl]methyl}-1H-pyr-rolo[2,3-b]pyridine-2-carboxamide], not above 100 nM; for `Cn1ccc(COC(=O)c2cc3ccc(CN)nc3n2Cc2cc(NS(=O)(=O)Cc3ccccc3)cc3ccccc23)n1` [Compound 61, (1-methyl-1H-pyrazol-3-yl)methyl 6-(amino-methyl)-1-{[3-(phenyl-methanesulfonamido)-naphthalen-1-yl]methyl}-1H-pyrrolo[2,3-b]pyr-idine-2-carboxylate], not above 100 nM.
As to `NCc1ccc2cc(C(=O)O)n(Cc3cc(NS(=O)(=O)Cc4ccccc4)cc4ccccc34)c2n1` [Compound 62, 6-(aminomethyl)-1-{[3-(phenylmethanesulfon-amido)naphthalen-1-yl]-methyl}-1H-pyrrolo[2,3-b]pyridine-2-carboxylic acid], the Ki was not above 100 nM.
The figure for `NCc1ccc2cc(C(=O)OCCN3CCCCC3)n(Cc3cc(NS(=O)(=O)Cc4ccccc4)cc4ccccc34)c2n1` [Compound 65, 2-(piperidin-1-yl)ethyl 6-(aminomethyl)-1-{[3-(phenylmethanesulfon-amido)naphthalen-1-yl]-methyl}-1H-pyrrolo[2,3-b]pyridine-2-carboxylate] is not above 100 nM; for `CNC(=O)c1cc2ccc(CN)nc2n1Cc1cc(NS(=O)(=O)Cc2ccccc2)cc2ccccc12` [Compound 66] it is not above 100 nM.
In the case of `CC(=O)N1CCC(COC(=O)c2cc3ccc(CN)nc3n2Cc2cc(NS(=O)(=O)Cc3ccccc3)cc3ccccc23)CC1` [Compound 67, (1-acetylpiperidin-4-yl)-methyl 6-(aminomethyl)-1-{[3-(phenylmethane-sulfonamido)naphthalen-1-yl]methyl}-1H-pyr-rolo[2,3-b]pyridine-2-carboxylate], the Ki was not above 100 nM.
The figure for `Cn1nccc1COC(=O)c1cc2ccc(CN)nc2n1Cc1cc(NS(=O)(=O)Cc2ccccc2)cc2ccccc12` [Compound 68, (1-methyl-1H-pyrazol-5-yl)methyl 6-(amino-methyl)-1-{[3-(phenyl-methanesulfonamido)-naphthalen-1-yl]meth-yl}-1H-pyrrolo[2,3-b]-pyridine-2-carboxylate] is not above 100 nM; for `NCc1ccc2cc(C(=O)OCCN3CCCC3)n(Cc3cc(NS(=O)(=O)Cc4ccccc4)cc4ccccc34)c2n1` [Compound 69, 2-(pyrrolidin-1-yl)ethyl 6-(aminomethyl)-1-{[3-(phenylmethanesulfon-amido)naphthalen-1-yl]-methyl}-1H-pyrrolo[2,3-b]pyridine-2-carboxylate] it is not above 100 nM; for `CC(C)n1cncc1COC(=O)c1cc2ccc(CN)nc2n1Cc1cc(NS(=O)(=O)Cc2ccccc2)cc2ccccc12` [Compound 70, [1-(propan-2-yl)-1H-imidazol-5-yl]methyl 6-(aminomethyl)-1-{[3-(phenylmethanesulfon-amido)naphthalen-1-yl]-methyl}-1H-pyrrolo[2,3-b]pyridine-2-carboxylate] it is not above 100 nM.
In the case of `CN(C)CCNC(=O)c1cc2ccc(CN)nc2n1Cc1cc(NS(=O)(=O)Cc2ccccc2)cc2ccccc12` [Compound 71, 6-(aminomethyl)-N-[2-(dimethylamino)ethyl]-1-{[3-(phenylmethane-sulfonamido)naphthalen-1-yl]methyl}-1H-pyr-rolo[2,3-b]pyridine-2-carboxamide], the inhibition constant Ki was not above 100 nM.
For `NCc1ccc2cc(C(=O)OC[C@H]3CCCCN3)n(Cc3cc(NS(=O)(=O)Cc4ccccc4)cc4ccccc34)c2n1` [Compound 72, [(2R)-piperidin-2-yl]-methyl 6-(aminomethyl)-1-{[3-(phenylmethane-sulfonamido)naphthalen-1-yl]methyl}-1H-pyr-rolo[2,3-b]pyridine-2-carboxylate] the value was not above 100 nM; for `CC(C)n1ccnc1COC(=O)c1cc2ccc(CN)nc2n1Cc1cc(NS(=O)(=O)Cc2ccccc2)cc2ccccc12` [Compound 74, [1-(propan-2-yl)-1H-imidazol-2-yl]methyl 6-(aminomethyl)-1-{[3-(phenylmethanesulfon-amido)naphthalen-1-yl]-methyl}-1H-pyrrolo-[2,3-b]pyridine-2-car-boxylate], not above 100 nM.
For the compound `COC(=O)NCCOC(=O)c1cc2ccc(CN)nc2n1Cc1cc(NS(=O)(=O)Cc2ccccc2)cc2ccccc12` [Compound 75, 2-[(methoxycarbonyl)-amino]ethyl 6-(amino-methyl)-1-{[3-(phenyl-methanesulfonamido)-naphthalen-1-yl]methyl}-1H-pyrrolo[2,3-b]pyr-idine-2-carboxylate], the Ki was not above 100 nM.
The figure for `CNCCNC(=O)c1cc2ccc(CN)nc2n1Cc1cc(NS(=O)(=O)Cc2ccccc2)cc2ccccc12` [Compound 76, 6-(aminomethyl)-N-[2-(methylamino)ethyl]-1-{[3-(phenylmethane-sulfonamido)naphthalen-1-yl]methyl}-1H-pyr-rolo[2,3-b]pyridine-2-carboxamide] is not above 100 nM; for `NCc1ccc2cc(C(=O)OCCN3CCS(=O)(=O)CC3)n(Cc3cc(NS(=O)(=O)Cc4ccccc4)cc4ccccc34)c2n1` [Compound 77, 2-(1,1-dioxo-1-thio-morpholin-4-yl)ethyl 6-(aminomethyl)-1-{[3-(phenylmethanesulfon-amido)naphthalen-1-yl]-methyl}-1H-pyrrolo[2,3-b]pyridine-2-carboxylate] it is not above 100 nM; for `NCc1ccc2cc(C(=O)NCCS(N)(=O)=O)n(Cc3cc(NS(=O)(=O)Cc4ccccc4)cc4ccccc34)c2n1` [Compound 78, 6-(aminomethyl)-1-{[3-(phenylmethanesulfon-amido)naphthalen-1-yl]-methyl}-N-(2-sulfamoyl-ethyl)-1H-pyrrolo[2,3-b]pyridine-2-carboxamide] it is not above 100 nM.

(Values after patent publication US20240400553A1, “AMINE BASED MATRIPTASE 2 INHIBITORS AND USES THEREOF” (Disc Medicine, Inc., priority 2023, published 2024).)
